Measured values published in patent US12157730B2, “Heteroaryl derivative, method for producing same, and pharmaceutical composition comprising same as effective component” (VORONOI INC., priority 2019, dated 2024).

Target: T1, Ba/F3 cell EGFR Exon20 ins NPH (Homo sapiens, UniProt P00533, INS773NPH)
T1 construct: expressed in transfected cells; host or cells: Ba/F3
Assay: Ba/F3 cell proliferation suppression, EGFR Exon20 ins NPH
Type: cell-based
Settings: GI50 class; Ba/F3 cell line with NPH inserted at Exon20 of EGFR; 72 hours
Procedure: The following experiment was carried out to evaluate the suppression activity of the compounds according to the present invention against proliferation of Ba/F3 and lung cancer cells which express EGFR mutations.
Of the cancer cell lines expressing the EGFR gene, A549 was cultured after adding 10% FBS (HyClone) to DMEM (Invitrogen), and RPMI-1640 (Invitrogen) with 10% FBS was used for the other cancer cells. For the Ba/F3 cells, RPMI-1640 with 10% FBS and 5 ng/ml IL-3 (R&D Systems) was used. The transduced Ba/F3 cells were cultured by adding 1 ug/ml puromycin (Invitrogen) to the same medium.
24 hours before treatment with the compounds, 3000 to 5000 cells were distributed into each well of a white clear bottom 96 well plate (Corning). The compounds were diluted in dimethylsulfoxide (dilution ratio 3:1; 12 concentrations total) and injected 0.5 ul each for a final concentration of 0.3 nM to 50 um. As for measurement of live cells, 72 hours after treatment with the compounds, a CellTiter-Glo luminescent cell-viability reagent (Promega) was used to store the cells at room temperature for 10 minutes, followed by measurement of luminescence using a reader (SynergyNeo, Biotek). Each test was repeated three times.
The result was calculated as a cell growth ratio (%) compared to a control. The program GraphPad Prism version 5.0 was used to draw the graphs and calculate the GI50 values.

Row | SMILES | Ba/F3 (NPH) Activity
1 | C=CC(=O)Nc1cc(Nc2cc(N3OCC[C@@H]3c3ccc(F)cc3F)ncn2)c(OC)cc1N1CCC(N2C[C@H]3C[C@@H]2CO3)CC1 [compound 423, N-(2-(4-((1R,4R)-2-oxa-5-azabicyclo [2.2.1]heptane-5-yl)piperidine-1-yl)-5-((6-((R)-3-(2,4-difluorophenyl)isoxazolidine-2-yl)pyrimidine-4-yl)amino)-4-methoxyphenyl) acrylamide] | A (GI50 < 50 nM)
2 | C=CC(=O)Nc1cc(Nc2cc(N3OCC[C@@H]3Cc3cc(F)cc(F)c3)ncn2)c(OC)cc1N1CCC(N2C[C@@H]3C[C@H]2CO3)CC1 [compound 1035, N-(2-(4-((1S,4S)-2-oxa-5-azabicyclo [2.2.1]heptane-5-yl)piperidine-1-yl)-5-((6-((S)-3-(3,5-difluorobenzyl)isoxazolidine-2-yl)pyrimidine-4-yl)amino)-4-methoxyphenyl) acrylamide] | A (GI50 < 50 nM)
3 | C=CC(=O)Nc1cc(Nc2cc(N3OCC[C@@H]3c3ccc(F)cc3F)ncn2)c(OC)cc1N1C[C@@H]2C[C@H]1CN2CC [compound 354, N-(5-((6-((R)-3-(2,4-difluorophenyl)isoxazolidine-2-yl)pyrimidine-4-yl)amino)-2-((1S,4S)-5-ethyl-2,5-diazabicyclo[2.2.1]heptane-2-yl)-4-methoxyphenyl) acrylamide] | A (GI50 < 50 nM)
4 | C=CC(=O)Nc1cc(Nc2cc(N3OCC[C@@H]3c3cc(F)cc(F)c3)ncn2)c(OC)cc1N1C[C@H]2CCN(C)[C@H]2C1 [compound 890, N-(5-((6-((R)-3-(3,5-difluorophenyl)isoxazolidine-2-yl)pyrimidine-4-yl)amino)-4-methoxy-2-((3aR,6aR)-1-methylhexahydropyrrolo [3,4-b]pyrrole-5(1H)-yl)phenyl) acrylamide] | A (GI50 < 50 nM)
5 | C=CC(=O)Nc1cc(Nc2cc(N3OCC[C@H]3c3c(F)cccc3F)ncn2)c(OC)cc1N1CCN(C)CC1 [compound 307, N-(5-((6-((S)-3-(2,6-difluorophenyl)isoxazolidine-2-yl)pyrimidine-4-yl)amino)-4-methoxy-2-(4-methylpiperazine-1-yl)phenyl)acrylamide] | C (500 nM ≤ GI50 < 5000 nM)
6 | C=CC(=O)Nc1cc(Nc2cc(N3OCC[C@@H]3c3ccc(C)nc3)ncn2)c(OC)cc1N1CCN(C(C)=O)CC1 [Example 49, N-(2-(4-acetylpiperazine-1-yl)-4-methoxy-5-((6-((R)-3-(6-methylpyridine-3-yl)isoxazolidine-2-yl)pyrimidine-4-yl)amino)phenyl) acrylamide] | C (500 nM ≤ GI50 < 5000 nM)
7 | C=CC(=O)Nc1cc(Nc2cc(N3OCC[C@@H]3c3cc(F)ccc3F)ncn2)c(OC)cc1N1C[C@H]2CCN(C)[C@H]2C1 [compound 892, N-(5-((6-((R)-3-(2,5-difluorophenyl)isoxazolidine-2-yl)pyrimidine-4-yl)amino)-4-methoxy-2-((3aR,6aR)-1-methylhexahydropyrrolo [3,4-b]pyrrole-5(1H)-yl)phenyl) acrylamide] | A (GI50 < 50 nM)
8 | C=CC(=O)Nc1cc(Nc2cc(N3OCC[C@@H]3c3c(F)ccc(F)c3F)ncn2)c(OC)cc1N(C)CCN(C)C [compound 628, N-(2-((2-(dimethylamino)ethyl) (methyl)amino)-4-methoxy-5-((6-((R)-3-(2,3,6-trifluorophenyl)isoxazolidine-2-yl)pyrimidine-4-yl)amino)phenyl)acrylamide] | A (GI50 < 50 nM)
9 | C=CC(=O)Nc1cc(Nc2cc(N3OCC[C@@H]3c3ccc(C)nc3)ncn2)c(OC)cc1N1CCN(CCN(C)C)CC1 [Example 219, N-(2-(4-(2-(dimethylamino)ethyl)piperazine-1-yl)-4-methoxy-5-((6-((R)-3-(6-methylpyridine-3-yl)isoxazolidine-2-yl)pyrimidine-4-yl)amino)phenyl)acrylamide] | B (50 nM ≤ GI50 < 500 nM)
10 | C=CC(=O)Nc1cc(Nc2cc(N3OCC[C@@H]3Cc3cccc(N(C)C)c3)ncn2)c(OC)cc1N1CCC(N2CCN(C3CC3)[C@H](C)C2)CC1 [compound 1046, N-(2-(4-((R)-4-cyclopropyl-3-methylpiperazine-1-yl)piperidine-1-yl)-5-((6-((S)-3-(3-(dimethylamino)benzyl)isoxazolidine-2-yl)pyrimidine-4-yl)amino)-4-methoxyphenyl) acrylamide] | B (50 nM ≤ GI50 < 500 nM)

The remaining lines, values ahead:

Row | Ba/F3 (NPH) Activity | SMILES
11 | A (GI50 < 50 nM) | C=CC(=O)Nc1cc(Nc2cc(N3OCC[C@@H]3c3cccc(Cl)c3F)ncn2)c(OC)cc1N1CCC(N2CCN(C(C)C)CC2)CC1 [compound 707, N-(5-((6-((R)-3-(3-chloro-2-fluorophenyl)isoxazolidine-2-yl)pyrimidine-4-yl)amino)-2-(4-(4-isopropylpiperazine-1-yl)piperidine-1-yl)-4-methoxyphenyl) acrylamide]
12 | A (GI50 < 50 nM) | C=CC(=O)Nc1cc(Nc2cc(N3OCC[C@@H]3Cc3cccc(F)c3)ncn2)c(OC)cc1N1CCC(N2CCOCC2)CC1 [compound 996, N-(5-((6-((S)-3-(3-fluorobenzyl)isoxazolidine-2-yl)pyrimidine-4-yl)amino)-4-methoxy-2-(4-morpholinopiperidine-1-yl)phenyl)acrylamide]
13 | A (GI50 < 50 nM) | C=CC(=O)Nc1cc(Nc2cc(N3OCC[C@@H]3c3cc(F)cc(Cl)c3)ncn2)c(OC)cc1N1CCC(N2CCN(C3CC3)C[C@H]2C)CC1 [Example 159, N-(5-((6-((R)-3-(3-chloro-5-fluorophenyl)isoxazolidine-2-yl)pyrimidine-4-yl)amino)-2-(4-((R)-4-cyclopropyl-2-methylpiperazine-1-yl)piperidine-1-yl)-4-methoxyphenyl) acrylamide]
14 | A (GI50 < 50 nM) | C=CC(=O)Nc1cc(Nc2cc(N3OCC[C@@H]3c3c(F)ccc(F)c3F)ncn2)c(OC)cc1N1CCC(N2CCN(C3CCC3)CC2)CC1 [Example 194, N-(2-(4-(4-cyclobutylpiperazine-1-yl)piperidine-1-yl)-4-methoxy-5-((6-((R)-3-(2,3,6-trifluorophenyl)isoxazolidine-2-yl)pyrimidine-4-yl)amino)phenyl)acrylamide]
15 | A (GI50 < 50 nM) | C=CC(=O)Nc1cc(Nc2cc(N3OCC[C@@H]3c3ccc(Cl)cc3)ncn2)c(OC)cc1N1CCC(N2CCN(C3CC3)CC2)CC1 [Example 58, N-(5-((6-((R)-3-(4-chlorophenyl)isoxazolidine-2-yl)pyrimidine-4-yl)amino)-2-(4-(4-cyclopropylpiperazine-1-yl)piperidine-1-yl)-4-methoxyphenyl) acrylamide]
16 | B (50 nM ≤ GI50 < 500 nM) | C=CC(=O)Nc1cc(Nc2cc(N3OCC[C@@H]3c3ccc4ccccc4c3)ncn2)c(OC)cc1N1CCC(N2CCN(CC)CC2)CC1 [compound 515, N-(2-(4-(4-ethylpiperazine-1-yl)piperidine-1-yl)-4-methoxy-5-((6-((R)-3-(naphthalene-2-yl)isoxazolidine-2-yl)pyrimidine-4-yl)amino)phenyl)acrylamide]
17 | A (GI50 < 50 nM) | C=CC(=O)Nc1cc(Nc2cc(N3OCC[C@@H]3c3cc(F)ccc3F)ncn2)c(OC)cc1N1CCC(N2CCN(C)[C@@H](C)C2)CC1 [compound 850, N-(5-((6-((R)-3-(2,5-difluorophenyl)isoxazolidine-2-yl)pyrimidine-4-yl)amino)-2-(4-((S)-3,4-dimethylpiperazine-1-yl)piperidine-1-yl)-4-methoxyphenyl) acrylamide]
18 | A (GI50 < 50 nM) | C=CC(=O)Nc1cc(Nc2cc(N3OCC[C@@H]3c3cccc(F)c3Cl)ncn2)c(OC)cc1N1CCC(N2CCN(C)CC2)CC1 [compound 560, N-(5-((6-((R)-3-(2-chloro-3-fluorophenyl)isoxazolidine-2-yl)pyrimidine-4-yl)amino)-4-methoxy-2-(4-(4-methylpiperazine-1-yl)piperidine-1-yl)phenyl) acrylamide]
19 | A (GI50 < 50 nM) | C=CC(=O)Nc1cc(Nc2cc(N3OCC[C@@H]3c3cccc(Cl)c3)ncn2)c(OC)cc1N1CCC(N2CCC(N(C)C)CC2)CC1 [compound 414, N-(5-((6-((R)-3-(3-chlorophenyl)isoxazolidine-2-yl)pyrimidine-4-yl)amino)-2-(4-(dimethylamino)-[1,4'-bipiperidine]-1'-yl)-4-methoxyphenyl) acrylamide]
20 | A (GI50 < 50 nM) | C=CC(=O)Nc1cc(Nc2cc(N3OCC[C@@H]3c3cccc(F)c3F)ncn2)c(OC)cc1N1CCC(N2CCN(C)CC2)CC1 [compound 921, N-(5-((6-((R)-3-(2,3-difluorophenyl)isoxazolidine-2-yl)pyrimidine-4-yl)amino)-4-methoxy-2-(4-(4-methylpiperazine-1-yl)piperidine-1-yl)phenyl) acrylamide]
21 | B (50 nM ≤ GI50 < 500 nM) | C=CC(=O)Nc1cc(Nc2cc(N3OCC[C@@H]3c3ccc(Cl)c(Cl)c3F)ncn2)c(OC)cc1N1CCC(N2CCN(C(C)=O)CC2)CC1 [compound 774, N-(2-(4-(4-acetylpiperazine-1-yl)piperidine-1-yl)-5-((6-((R)-3-(3,4-dichloro-2-fluorophenyl)isoxazolidine-2-yl)pyrimidine-4-yl)amino)-4-methoxyphenyl) acrylamide]
